{"source": "patent US9656972B2", "about": "“Compounds for treatment of cystic fibrosis” (THE CALIFORNIA INSTITUTE FOR BIOMEDICAL RESEARCH, priority 2013, dated 2017)", "key": {"[1]": {"test_system": "guinea-pigs", "assay": "Tracheal potential difference (TPD) after intra-tracheal dosing in guinea pigs", "assay_type": "in vivo", "settings": "guinea pig; for TPD (mV): i.t. instillation, mean; for TPD Assessment Time after i.t. Treatment 1 hr / TPD Assessment Time after i.t. Treatment 3 hr / TPD Assessment Time after i.t. Treatment 5 hr / TPD Assessment Time after i.t. Treatment 8 hr / TPD Assessment Time after i.t. Treatment 24 hr / TPD Assessment Time after i.t. Treatment 48 hr: Table 3, mean ± sem", "excerpt": "Cystic fibrosis (CF) and chronic obstructive pulmonary disease (COPD) is dysregulated clearance of mucus across the cell layers lining the respiratory tract. A therapeutic strategy to treat these diseases is to inhibit these channels or the regulators of these channels in an effort to correct this mucus clearance defect. Potential difference is used in the clinic as a diagnostic tool for cystic fibrosis sufferers and for clinical trials. Small molecule inhibitors of these targets will enhance mucociliary clearance and thereby improve lung function and reduce the rate of exacerbations in cystic fibrosis (CF) and chronic obstructive pulmonary disease (COPD) patients. The guinea pig, unlike other rodents, has a lung structure which is roughly analogous to the human lung. For this reason, in terms of rodent models of lung function the guinea pig is often the model of choice for respiratory disease models including asthma, COPD and respiratory distress syndrome.\nPreparation of Agar Bridges\nAgar (3.5%) was dissolved in Hank's buffered salt solution (pH 7.4, 280-305 mosmkg_1H2O) by heating in a water bath at 100° C. A 30-40 cm length of polyethylene tubing, of which one end was bevelled at an angle of 20-60°, was then filled with the agar ensuring no air bubbles were formed or trapped within the tubing. The beveled tip of the tube was then dipped in the liquid agar, creating a small bulge. The exploring and reference electrodes constructed with the Hank's buffered salt solution/agar bridge were linked to a calomel half cell by immersion in 1M KCl.\nGuinea pigs received a single dose of either the test article or vehicle instilled directly into the trachea. The animal was placed under short-term anesthesia using an inhaled isoflurane/nitrous oxide (N2O) 1:1 mixture (level 5/optimal for ˜10 sec.; 3.5/2 for 5 min.). At this suitable depth of anesthesia (loss of pedal and blink reflex), a single dose of either the test article, vehicle and/or positive control was instilled directly into the trachea. This was accomplished by very delicately inserted the 3″, 18 guage feeding tube into the trachea to preserve the potential difference of the mucosa. The guinea pig was allowed to recovered immediately; at times with the aid of supplemental O2. […] If there was apparent toxicity, animals were euthanized immediately and all observation was appropriately documented. As the animal was anesthetized during this treatment, no local anesthesia was necessary and there was no need to use a laryngoscope.\n30 minutes prior to the 3 hr post dosing surgery each guinea pig received a dose of 0.4 mL of Midazolam-5 mg/mL, intra-peritoneal (i.p.) injection followed 25 minutes later with a 1 mL/kg of 50 mg/kg ketamine/6.5 mg/kg xylazine i.p. injection (previously prepared with 100 mg/mL ketamine and 25 mg/mL xylazine in Sterile Water for Injection USP mixed at 2:1:1 respectively). […] The trachea was exposed and visualized near the sternum using minimal blunt dissection. A lateral incision was made between the cartilaginous rings of the trachea close to the sternum. The beveled (distal) end of an exploring electrode was gently inserted into the lumen of the trachea moving in the direction towards the larynx, ensuring that spontaneous respiration was still possible. The beveled end of the reference electrode was positioned near the trachea in electrical contact with the flesh of the throat. A small volume of HBSS was applied into this region to ensure a good electrical contact. Potential difference was measured using a high impedance voltmeter (IsoMil) (5-0.5 cm increment measurement for verification—but only the initial placement value is recorded). The animal was terminated immediately after this procedure while still under anesthesia with an intra-cardiac dose of 0.5 mL of Euthasol."}, "[2]": {"assay": "Systemic (plasma) exposure after intratracheal dosing", "assay_type": "in vivo, guinea pig", "settings": "1 mg/kg single dose, compared with monomeric GS-9411", "description": "A comparison of systemic (plasma exposure) of monomeric compound GS-9411 and dimeric compound 28 after intratracheal dosing was performed (at 1 mg/kg single dose)."}, "[3]": {"settings": "Table 1, dose 30 ug/kg, 3 hr after dosing"}, "[4]": {"settings": "Table 2 controls, dose 300 ug/kg, vehicle −12.4"}, "[5]": {"settings": "Table 1, dose 300 ug/kg, 3 hr after dosing"}, "[6]": {"settings": "Table 1, dose 0.2 ug/kg, 3 hr after dosing"}}, "data": [{"smiles": "N=C(NCCCCc1ccc(OCCOCCNC(=O)C(O)C(O)C(=O)NCCOCCOc2ccc(CCCCNC(=N)NC(=O)c3nc(Cl)c(N)nc3N)cc2)cc1)NC(=O)c1nc(Cl)c(N)nc1N", "note": "(stereo not drawn) [Compound 16]", "values": [{"measurement": "TPD (mV)", "setting": "[1]; [3]", "value": "−6.30", "unit": "mV"}]}, {"smiles": "N=C(NCCCCc1ccc(OCCOCCOCCNC(=O)C(=O)NCCOCCOCCOc2ccc(CCCCNC(=N)NC(=O)c3nc(Cl)c(N)nc3N)cc2)cc1)NC(=O)c1nc(Cl)c(N)nc1N", "note": "[Compound 69]", "values": [{"measurement": "TPD (mV)", "setting": "[1]; [3]", "value": "−6.3", "unit": "mV"}]}, {"smiles": "CN(C)C(=O)COC(=O)Cc1ccc(OC(=O)c2ccc(NC(=N)N)cc2)cc1", "note": "[Camostat]", "values": [{"measurement": "TPD (mV)", "setting": "[1]; [4]", "value": "−4.9", "unit": "mV"}]}, {"smiles": "NC(=NCc1ccccc1)NC(=O)c1nc(Cl)c(N)nc1N", "note": "[Benzamil]", "values": [{"measurement": "TPD (mV)", "setting": "[1]; [4]", "value": "−6.2", "unit": "mV"}, {"measurement": "TPD Assessment Time after i.t. Treatment 1 hr", "setting": "[1]; 300 μg/kg", "value": "−8.9 (1)"}, {"measurement": "TPD Assessment Time after i.t. Treatment 3 hr", "setting": "[1]; 300 μg/kg", "value": "−7.2 (1)"}, {"measurement": "TPD Assessment Time after i.t. Treatment 5 hr", "setting": "[1]; 300 μg/kg", "value": "−8.5 (1)"}, {"measurement": "TPD Assessment Time after i.t. Treatment 8 hr", "setting": "[1]; 300 μg/kg", "value": "−6.5 (1)"}, {"measurement": "TPD Assessment Time after i.t. Treatment 24 hr", "setting": "[1]; 300 μg/kg", "value": "−4.8 (1)"}, {"measurement": "TPD Assessment Time after i.t. Treatment 48 hr", "setting": "[1]; 300 μg/kg", "value": "−10.0 ± 0.07 (2)"}]}, {"smiles": "COC(=O)C(CCCC(NC(=O)OCCOCCOc1ccc(CCCCNC(=N)NC(=O)c2nc(Cl)c(N)nc2N)cc1)C(=O)OC)NC(=O)OCCOCCOc1ccc(CCCCNC(=N)NC(=O)c2nc(Cl)c(N)nc2N)cc1", "note": "(stereo not drawn) [Compound 46]", "values": [{"measurement": "TPD (mV)", "setting": "[1]; [3]", "value": "−7.30", "unit": "mV"}]}, {"smiles": "N=C(NCCCCc1ccc(OCCOCCOC(=O)NCCCCNC(=O)OCCOCCOc2ccc(CCCCNC(=N)NC(=O)c3nc(Cl)c(N)nc3N)cc2)cc1)NC(=O)c1nc(Cl)c(N)nc1N", "note": "[Compound 28]", "values": [{"measurement": "TPD (mV)", "setting": "[1]; [5]", "value": "−4.00", "unit": "mV"}, {"measurement": "TPD Assessment Time after i.t. Treatment 1 hr", "setting": "[1]; 30 μg/kg", "value": "−6.7 ± 0.65 (3)"}, {"measurement": "TPD Assessment Time after i.t. Treatment 3 hr", "setting": "[1]; 30 μg/kg", "value": "−6.4 ± 0.60 (3)"}, {"measurement": "TPD Assessment Time after i.t. Treatment 5 hr", "setting": "[1]; 30 μg/kg", "value": "−5.4 ± 1.03 (3)"}, {"measurement": "TPD Assessment Time after i.t. Treatment 8 hr", "setting": "[1]; 30 μg/kg", "value": "−5.1 ± 0.54 (3)"}, {"measurement": "TPD Assessment Time after i.t. Treatment 24 hr", "setting": "[1]; 30 μg/kg", "value": "−5.9 ± 0.18 (3)"}, {"measurement": "TPD Assessment Time after i.t. Treatment 48 hr", "setting": "[1]; 30 μg/kg", "value": "−9.6 ± 1.43 (3)"}, {"measurement": "lower AUC (total area under the curve) versus GS-9411", "setting": "[2]", "value": 5, "unit": "fold"}, {"measurement": "lower Cmax (maximal concentration) versus GS-9411", "setting": "[2]", "value": 20, "unit": "×"}]}, {"smiles": "N=C(NCCCCc1ccc(OCCOCCNC(=O)CCC(=O)NCCOCCOc2ccc(CCCCNC(=N)NC(=O)c3nc(Cl)c(N)nc3N)cc2)cc1)NC(=O)c1nc(Cl)c(N)nc1N", "note": "[Compound 67]", "values": [{"measurement": "TPD (mV)", "setting": "[1]; [6]", "value": "−7.0", "unit": "mV"}]}, {"smiles": "N=C(N)Nc1ccc(C(=O)Oc2ccc(CC(=O)OCC(=O)NCCOCCOCCNC(=O)COC(=O)Cc3ccc(OC(=O)c4ccc(NC(=N)N)cc4)cc3)cc2)cc1", "note": "[Compound 53]", "values": [{"measurement": "TPD (mV)", "setting": "[1]; [3]", "value": "−9.3", "unit": "mV"}]}, {"smiles": "N=C(NCCCCc1ccc(OCCOCCOCCOCCOCCO)cc1)NC(=O)c1nc(Cl)c(N)nc1N", "note": "[Compound 66]", "values": [{"measurement": "TPD (mV)", "setting": "[1]; [3]", "value": "−7.80", "unit": "mV"}]}, {"smiles": "N=C(N)Nc1ccc(C(=O)Oc2ccc3cc(C(=N)NCCOCCOCCNC(=N)c4ccc5cc(OC(=O)c6ccc(NC(=N)N)cc6)ccc5c4)ccc3c2)cc1", "note": "[Compound 50]", "values": [{"measurement": "TPD (mV)", "setting": "[1]; [5]", "value": "−6.20", "unit": "mV"}]}, {"smiles": "N=C(NCCCCc1ccc(OCCOCCNC(=O)NCCCCNC(=O)NCCOCCOc2ccc(CCCCNC(=N)NC(=O)c3nc(Cl)c(N)nc3N)cc2)cc1)NC(=O)c1nc(Cl)c(N)nc1N", "note": "[Compound 37]", "values": [{"measurement": "TPD (mV)", "setting": "[1]; [3]", "value": "−7.50", "unit": "mV"}, {"measurement": "TPD (mV)", "setting": "[1]; [5]", "value": "−5.50", "unit": "mV"}]}, {"smiles": "N=C(NCCCCc1ccc(OCCOCCOCCNC(=O)CCC(=O)NCCOCCOCCOc2ccc(CCCCNC(=N)NC(=O)c3nc(Cl)c(N)nc3N)cc2)cc1)NC(=O)c1nc(Cl)c(N)nc1N", "note": "[Compound 68]", "values": [{"measurement": "TPD (mV)", "setting": "[1]; [6]", "value": "−6.9", "unit": "mV"}]}]}
